Laboratory results reported in US11058756B2, “Compositions and methods of treating autoimmune disease by reducing enterococcus” (YALE UNIVERSITY, priority 2017, dated 2021).

Legend:
[1] = system: (NZWxBXSB)F1 mice; assay: Serum ELISAs for anti-dsDNA, anti-RNA, anti-β2GPI IgG, ERV gp70 protein and anti-ERV gp70 immune complexes; assay type: in vivo, mouse; settings: single antibiotic in drinking water; 16 weeks of age; FIG. 1B-1C
Source text: (§1) Mice were cohoused for 3 to 4 weeks before antibiotic treatment to allow for equilibration of the microbiota. Single antibiotic or broad-spectrum antibiotic administration consisted of metronidazole (1 g/liter; Fisher Scientific), neomycin (1 g/liter; Fisher Scientific), ampicillin (1 g/liter; Sigma) and vancomycin (0.5 g/liter; Acros Organics) in the drinking water for up to 22 weeks or a targeted regiment for 2 weeks and then replaced with regular water for the duration of the experiment. For broad-spectrum antibiotic experiments (vancomycin, ampicillin, metronidazole, and neomycin combined), sweetener (Equal, 4 g/L) was added to both the antibiotics and control water due to the metallic taste of metronidazole. Twenty-four hours after cessation of antibiotic water, mice were administered 1×10^6 CFUs of vancomycin-resistant E. gallinarum via oral gavage, isolated from liver tissue of a vancomycin-treated mouse that continued to show signs of autoimmune disease (high-level resistance was confirmed by vanC gene PCR). E. gallinarum was grown at 37° C. in Gifu Anaerobic Broth (HIMEDIA Laboratories) to early stationary phase under anaerobic conditions (82% N2, 15% CO2, 3% H2 by volume) in an anaerobic chamber and diluted in PBS to 10^7 CFUs.
(§2) Serum antibodies specific for dsDNA and b2GPI were determined using standardized ELISAs (anti-dsDNA antibody, Abcam; and, Mouse/Rat Apolipoprotein H Antibody, R&D Systems; respectively). Anti-RNA was determined by ELISA using defined positive controls (Human/Mouse RNA Polymerase II Antibody, R&D systems). Anti-ERV gp70 ICs and ERV gp70 protein were determined by OD450 signal comparisons (Evans et al., 1990, J Virol, 64, 6176-6183). For anti-dsDNA ELISAs, DNA-BIND™ (Corning) plates were coated with 100 μg/ml salmon sperm DNA (Fisher Scientific) and blocked in 0.1M PBS, 3.0% BSA, 5.0% FBS. The serum was diluted 1:1000 for the assay and incubated for 1 hour at 37° C. Wells were washed and incubated for 1 hour at 37° C. with rabbit anti-mouse IgG (Fisher Scientific) conjugated to HRP and developed with TMB substrate solution. 2M sulfuric acid (Sigma) solution was used to stop development. The concentration of anti-dsDNA was determined by reading the absorbance at 450 nm/570 nm reference.
(§3) For anti-RNA ELISAs, DNA-BIND™ (Corning) plates were coated with […] yeast RNA (Ambion) and blocked in 0.1M PBS, 0.05% Tween-20, 5.0% FBS. The serum was diluted 1:1000 for the assay and incubated for 1 hour at 37° C. Wells were washed and incubated for 1 hour at 37° C. with rabbit anti-mouse IgG (Fisher Scientific) conjugated to HRP and developed with TMB substrate solution. 2M sulfuric acid (Sigma) solution was used to stop development. The concentration of anti-RNA IgG was determined by reading the absorbance at 450 nm/570 nm reference.
For anti-b2GPI ELISAs, Corning® 96-well EIA/RIA easy Wash™ clear flat-bottom polystyrene high-bind microplates were coated with […] recombinant b2GPI/ApoH (R&D Systems) and blocked in Pierce Protein-Free (PBS) Blocking Buffer (Thermo Scientific). The serum was diluted 1:100 for the assay and incubated at room temperature for 2 hours on a shaker. Wells were washed and incubated while shaking for 30 minutes at room temperature with goat anti-mouse IgG (Fisher Scientific) conjugated to HRP and developed with TMB substrate solution. 2M sulfuric acid (Sigma) solution was used to stop development. The concentration of anti-b2GPI was determined by reading the absorbance at 450 nm/650 nm reference. […]

[2] = system: (NZWxBXSB)F1 mice; assay: Oral antibiotics in drinking water: mortality, clinical outcome, proteinuria and organ histology in the autoimmune hybrid model; assay type: in vivo, mouse
Source text: 6-week-old male (NZWxBXSB)F1 mice and C57BL/6J mice were used in this study except if noted otherwise. (NZWxBXSB)F1 were bred by mating NZW/LaJ females with BXSB/MpJ males obtained from Jackson Laboratory (Bar Harbor, Me., USA). Parental littermates of (NZWxBXSB)F1 were randomly mixed with littermates from other parental cages 21 days after birth to equilibrate the microbiomes from different cages and parental origin. All mice were maintained in a specific-pathogen-free environment. (NZWxBXSB)F1 mice were provided with water and a standard laboratory diet ad libitum (2018 Harlan Teklad, South Easton, Mass., USA). They were supplied with hardwood chips as bedding and were housed in a temperature-controlled, air-conditioned room on a 12-hr light-dark cycle. Germ-free (GF) C57BL/6 mice were kept under sterile conditions in CBC's (Class Biologically Clean, Madison, Wis., USA) Quad flexible film isolators (Softwall), exposed to a 12-hr light/dark cycle and provided standard, autoclaved tap water and mouse chow (2018S Harlan Teklad, South Easton, Mass., USA) ad libitum. To exclude a Th17 bias, a PCR for segmented filamentous bacteria (SFB) was performed on fecal DNA from all mice involving Th17 studies. Fecal SFB detection at 6-8 weeks of age that correlates with ileal SFB colonization was performed as described (Barman et al., 2008, Infect Immun, 76, 907-915; Kriegel et al., 2011, Proc Natl Acad Sci USA, 108, 11548-11553). All Th17 data was derived from SFB-negative animals.
as §1
Samples were obtained at autopsy and fixed in 10% neutral formalin, and histological sections were stained with hematoxylin and eosin (H&E) and scored in a blinded fashion. Glomerulonephritis was scored on a scale of 0-4 based on the intensity and extent of histopathological changes (Klopfleisch, 2013, BMC Vet Res, 9, 123). A grade of 0 was given to kidneys without glomerular lesions; grade 1 consisted of minimal thickening of the mesangium; grade 2 contained noticeable increases in both mesangial and glomerular cellularity; grade 3 was characterized by the preceding conditions with superimposed inflammatory exudates and capsular adhesions; and grade 4 consisted of obliterated glomerular architecture in greater than 70% of glomeruli. […]

[3] = system: E. gallinarum; assay: Assessment of bacterial translocation and tissue burden (anaerobic tissue cultures, CFU); assay type: in vivo, mouse; settings: (NZWxBXSB)F1 mice, antibiotics in drinking water; 16-18 weeks of age; FIG. 1K-1N
Source text: Mice were cohoused for 3 to 4 weeks before antibiotic treatment to allow for equilibration of the microbiota. Single antibiotic or broad-spectrum antibiotic administration consisted of metronidazole (1 g/liter; Fisher Scientific), neomycin (1 g/liter; Fisher Scientific), ampicillin (1 g/liter; Sigma) and vancomycin (0.5 g/liter; Acros Organics) in the drinking water for up to 22 weeks or a targeted regiment for 2 weeks and then replaced with regular water for the duration of the experiment. For broad-spectrum antibiotic experiments (vancomycin, ampicillin, metronidazole, and neomycin combined), sweetener (Equal, 4 g/L) was added to both the antibiotics and control water due to the metallic taste of metronidazole. […] E. gallinarum was grown at 37° C. in Gifu Anaerobic Broth (HIMEDIA Laboratories) to early stationary phase under anaerobic conditions (82% N2, 15% CO2, 3% H2 by volume) in an anaerobic chamber and diluted in PBS to 10^7 CFUs.
14-, 16- and 18-week-old mice underwent sterile laparotomy and nose, mouth, small intestine (luminal and adherent fractions), mesenteric veins, mesenteric lymph nodes (MLN), liver and spleen were aseptically collected in BBL Mycoflask Thioglycollate (Fluid) Prepared Media (BD Diagnostic Systems) and incubated for 72 hours in anaerobic conditions at 37° C. Gifu Media Agar plates were streaked with the content from the BBL Mycoflask Thioglycollate and incubated for 48 hours in an anaerobic chamber at 37° C. Colony Formation Units (CFU) were counted and concentration determined per milligram of tissue. Single colonies were grown in Gifu anaerobic media for 48 hours in an anaerobic chamber at 37° C. and aliquots from each sample were collected and centrifuge for 10 minutes at 10000×g. DNA was extracted from bacterial pellets using DNeasy Blood and Tissue kit (Qiagen) and submitted to PCR amplification of the 16S region and Sanger sequencing. In addition, purified DNA was used for eubacterial, Enterococcus genus and Enterococcus gallinarum PCR assays.

[4] = target: T1, AhR (Mus musculus, UniProt P30561); assay: AhR antagonist experiment in E. gallinarum-gavaged (NZWxBXSB)F1 mice; assay type: in vivo; settings: 4 weeks; for Th17-inducing effects of E. gallinarum (MLN Th17 cell frequency): CH223191 i.p. 300 μg/mouse/day, 5 days a week, ABX-pretreated, E. gallinarum gavaged, FIG. 20; for autoantibodies-inducing effects of E. gallinarum (serum anti-RNA and anti-dsDNA IgG): CH223191 i.p. 5 days a week, FIG. 4O-4P
T1 construct: mice were injected i.p. with 300 mg of CH223191 (a selective AhR antagonist; Sigma-Aldrich) or mock 5 days a week; from tissue; host or cells: whole animal: (NZWxBXSB)F1 hybrid mice
T1 sequence (P30561 10-848): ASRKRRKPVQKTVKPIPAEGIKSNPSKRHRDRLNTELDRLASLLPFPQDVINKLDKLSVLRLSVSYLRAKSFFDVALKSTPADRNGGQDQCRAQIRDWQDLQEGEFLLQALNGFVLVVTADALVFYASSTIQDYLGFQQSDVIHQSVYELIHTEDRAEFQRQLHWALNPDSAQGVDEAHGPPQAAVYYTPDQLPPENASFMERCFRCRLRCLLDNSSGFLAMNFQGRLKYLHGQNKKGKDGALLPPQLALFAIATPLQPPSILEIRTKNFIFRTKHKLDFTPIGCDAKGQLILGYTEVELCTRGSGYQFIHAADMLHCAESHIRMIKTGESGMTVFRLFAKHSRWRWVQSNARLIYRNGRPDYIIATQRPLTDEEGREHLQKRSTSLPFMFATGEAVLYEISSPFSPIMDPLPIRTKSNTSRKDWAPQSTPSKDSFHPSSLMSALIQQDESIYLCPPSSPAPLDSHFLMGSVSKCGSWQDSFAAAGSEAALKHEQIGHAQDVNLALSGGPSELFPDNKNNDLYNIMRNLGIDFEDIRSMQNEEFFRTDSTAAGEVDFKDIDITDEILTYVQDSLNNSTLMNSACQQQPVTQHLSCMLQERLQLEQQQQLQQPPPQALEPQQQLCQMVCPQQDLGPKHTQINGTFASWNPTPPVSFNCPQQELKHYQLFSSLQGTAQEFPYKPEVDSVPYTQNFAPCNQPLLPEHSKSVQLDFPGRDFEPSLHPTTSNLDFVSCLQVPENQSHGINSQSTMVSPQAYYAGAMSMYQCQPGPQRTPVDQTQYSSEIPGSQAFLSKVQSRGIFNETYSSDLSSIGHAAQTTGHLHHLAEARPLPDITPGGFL
Protocol: as §2, §3
For direct ex vivo intracellular cytokine detection, cells isolated from small intestinal lamina propria, MLN or spleen were immediately treated with GolgiStop (BD Bioscience) and surface-stained in FACS buffer (PBS, 2% bovine serum albumin, 0.2 mg of sodium azide, 2 mM EDTA) for 30 minutes in the dark at room temperature with fluorescently conjugated antibodies specific for CD3, CD4, CD11b, CD11c, CD44, CD62L, CD19, CD45, CD45R (B220), CXCR5, GITR, IL-17, IFN-g, Ly6C, NK1.1, PDCA-1, PD-1 and PSGL-1. After staining for surface antigens, some B cells and T cells were stained for intracellular cytokines using intracellular cytokine fixation buffer (eBioscience) and fluorescently conjugated antibodies specific for IL-17, IFN-g and FoxP3 (eBioscience) for 30 minutes in the dark at room temperature. Cell viability was assessed with Zombie NIR Fixable Viability Kit (BioLegend).
(NZWxBXSB)F1 mice were treated with broad-spectrum antibiotics (vancomycin, ampicillin, neomycin and metronidazole) from 10 weeks to 14 weeks of age. 24 hours later mice were gavaged with E. gallinarum every week for 4 weeks. […]

[5] = listed as AHR-selective antagonist

CC1(C)S[C@@H]2[C@H](NC(=O)[C@H](N)c3ccccc3)C(=O)N2[C@H]1C(=O)O [ampicillin]
lupus-related autoantibodies (serum anti-dsDNA and anti-RNA IgG) [1]: prevented
Mortality ([2]; single antibiotic in drinking water from 6 weeks of age, followed for 30 weeks or until death, FIG. 1A): prevented
autoimmune manifestations (proteinuria, organ histology scores) ([2]; single antibiotic in drinking water, FIG. 1D-1I): prevented

neomycin
Translocation (bacterial growth in mesenteric veins, MLN, liver, spleen) [3]: only to a lesser degree
clinical outcomes ([2]; neomycin 1.0 g/L in drinking water): did not alter

Cc1ccccc1N=Nc1ccc(NC(=O)c2ccnn2C)c(C)c1 [CH223191]
Th17-inducing effects of E. gallinarum (MLN Th17 cell frequency) [4]: reverses
Th17-inducing effects of E. gallinarum (MLN Th17 cell frequency) [4, 5]: abrogated
autoantibodies-inducing effects of E. gallinarum (serum anti-RNA and anti-dsDNA IgG) [4]: reverses
autoantibodies-inducing effects of E. gallinarum (serum anti-RNA and anti-dsDNA IgG) [4, 5]: abrogated
